In BindingDB's records for doi:10.1021/acs.jnatprod.5b00540 (Toyama Prefectural University, 2015):
Numbered stars: 1 amine (or outer) side, 2 acyl side, 3 side chain; on linkers, the order of the positions; unused ones are H or OH. Bridge positions count the residues as written; N and C are the ends. Square brackets hold non-standard residues; d marks the D form. Peptide text beside a SMILES is read from it. * marks the point of attachment. Cinnamoyl(2-(1Z-pentenyl)) = CCC/C=C\c1ccccc1/C=C/C(=O)*; X1 = CN(/C(=C/c1ccc(O)cc1)C(=O)[*:2])[*:1]; aThr = C[C@H](O)[C@H](N)C(=O)O

Target: T1, Accessory gene regulator protein A (Staphylococcus aureus, UniProt P0A0I7)
T1 sequence (P0A0I7 whole entry): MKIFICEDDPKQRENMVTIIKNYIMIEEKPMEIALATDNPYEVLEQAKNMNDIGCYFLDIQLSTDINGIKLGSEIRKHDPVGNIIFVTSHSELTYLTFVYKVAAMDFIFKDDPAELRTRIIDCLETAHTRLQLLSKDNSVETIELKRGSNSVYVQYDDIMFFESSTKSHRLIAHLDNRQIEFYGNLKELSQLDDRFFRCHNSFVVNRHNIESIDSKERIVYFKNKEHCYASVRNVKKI
Assay: Inhibition of agr-mediated quorum sensing in Staphylococcus aureus after 5 hrs by luminescence analysis

Structure (SMILES)	IC50 [µM]
CC(C)[C@@H]1NC(=O)C[C@H](/C=C/c2ccccc2)OC(=O)[C@H](C(C)C)NC(=O)[C@H](C(C)C)NC(=O)[C@@H](C)NC1=O	0.3
CC[C@H](C)[C@@H]1NC(=O)[C@@H](C)NC(=O)[C@H](C(C)C)NC(=O)C[C@H](/C=C/c2ccccc2)OC(=O)[C@H](C(C)C)NC1=O [CHEBI:67522]	0.8
C[C@H]1NC(=O)[C@@H](Cc2ccccc2)N(C)C(=O)[C@@H]2CCCN2C(=O)c2ccccc2NC(=O)[C@H](Cc2ccccc2)NC1=O	4.4
CCC/C=C\c1ccccc1/C=C/C(=O)N[C@@H]1C(=O)N(C)/C(=C/c2ccc(O)cc2)C(=O)N[C@@H](CC(C)C)C(=O)N[C@H](Cc2ccccc2)C(=O)N[C@@H]([C@H](C)O)C(=O)N[C@@H](CC(N)=O)C(=O)N[C@@H](CO)C(=O)O[C@@H]1C ({Cinnamoyl(2-(1Z-pentenyl))}-T[X1]L[dF][aThr]NS; ester 1-C)	2.5
